Experimental data taken from article PMC10092485, “Sialic Acid 4‐N‐Piperazine and Piperidine Derivatives Bind with High Affinity to the P. mirabilis Sialic Acid Sodium Solute Symporter” (Chemmedchem, 2022).

What was measured:
Type in all cases: binding
[1] = target: T1, PmSiaT (Proteus mirabilis, UniProt B4EZY7); assay: nanoDSF thermal shift; details: PBS, 0.0174 % DDM, 2 μM protein, 1.25 mM ligand; shift counted from the Neu5Ac complex
T1 construct: gene siaT; detergent-solubilised transporter in DDM; extinction coefficient 76,445

[2] = target: T1, PmSiaT; assay: isothermal titration calorimetry; details: 25 °C; 50 mM Tris-HCl, 150 mM NaCl, 0.0174 % DDM, pH 8.0 (at 5 °C); n fixed to 1
Text: isothermal titration calorimetry on PmSiaT

[3] = target: T1, PmSiaT; assay: nanoDSF thermal shift; details: PBS, 0.0174 % DDM, 2 μM protein, 1.25 mM ligand; reference ligand for all shifts

T1 sequence (B4EZY7 whole entry): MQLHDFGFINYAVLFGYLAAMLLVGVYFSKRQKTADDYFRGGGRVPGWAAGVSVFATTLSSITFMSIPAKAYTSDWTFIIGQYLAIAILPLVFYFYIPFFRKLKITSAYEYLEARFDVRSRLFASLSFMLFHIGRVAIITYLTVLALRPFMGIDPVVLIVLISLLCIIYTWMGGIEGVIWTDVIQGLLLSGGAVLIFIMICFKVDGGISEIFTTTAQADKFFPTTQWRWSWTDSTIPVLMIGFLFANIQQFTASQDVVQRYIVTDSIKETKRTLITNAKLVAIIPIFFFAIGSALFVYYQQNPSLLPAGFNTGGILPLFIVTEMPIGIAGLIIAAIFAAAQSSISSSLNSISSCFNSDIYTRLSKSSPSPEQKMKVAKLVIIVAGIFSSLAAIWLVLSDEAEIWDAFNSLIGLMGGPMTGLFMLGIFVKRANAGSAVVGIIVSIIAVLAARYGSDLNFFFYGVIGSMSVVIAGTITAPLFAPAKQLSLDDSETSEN

CC(=O)N[C@H]1[C@H]([C@H](O)[C@H](O)CO)OC(O)(C(=O)O)C[C@@H]1N1CCC(c2ccc(Br)cc2)CC1 (stereo partly drawn) [3 g, 5‐Acetamido‐4‐[4‐(4‐bromophenyl)piperidin‐1‐yl]‐3,4,5‐ trideoxy‐D‐glycero‐β‐D‐galacto‐nonulosonic acid]
ΔT m (relative to Neu5Ac) [1]: piperidine or piperazine‐linked halogenated aromatic residues showed the largest thermal stabilizations

CC(=O)N[C@H]1[C@H]([C@H](O)[C@H](O)CO)OC(O)(C(=O)O)C[C@@H]1N1CCC(c2cccc(Br)c2)CC1 (stereo partly drawn) [3 f, 5‐Acetamido‐4‐[4‐(3‐bromophenyl)piperidin‐1‐yl]‐3,4,5‐ trideoxy‐D‐glycero‐β‐D‐galacto‐nonulosonic acid]
Kd [2]: 1320 nM

CC(=O)N[C@H]1[C@H]([C@H](O)[C@H](O)CO)OC(O)(C(=O)O)C[C@@H]1O (stereo partly drawn) [Neu5Ac]
ΔT m [3]: The ΔT m reported are given in °C and relative to Neu5Ac

CC(=O)N[C@H]1[C@H]([C@H](O)[C@H](O)CO)OC(O)(C(=O)O)C[C@@H]1N1CCC(c2cccc(O)c2)CC1 (stereo partly drawn) [3 i, 5‐Acetamido‐4‐[4‐(3‐hydroxyphenyl)piperidin‐1‐yl]‐3,4,5‐ trideoxy‐D‐glycero‐β‐D‐galacto‐nonulosonic acid]
Kd [2]: 17900 nM

CC(=O)N[C@H]1[C@H]([C@H](O)[C@H](O)CO)OC(O)(C(=O)O)C[C@@H]1N1CCN(C(=O)c2cccc(Cl)c2Cl)CC1 (stereo partly drawn) [6 c, 5‐Acetamido‐4‐[4‐(2,3‐dichlorobenzoyl)piperazin‐1‐yl]‐3,4,5‐ trideoxy‐D‐glycero‐β‐D‐galacto‐nonulosonic acid]
Kd [2]: 470 nM

CC(=O)N[C@H]1[C@H]([C@H](O)[C@H](O)CO)OC(O)(C(=O)O)C[C@@H]1N1CCC(c2cccc(C(F)(F)F)c2)CC1 (stereo partly drawn) [3 h, 5‐Acetamido‐3,4,5‐ trideoxy‐4‐[4‐(3‐trifluoromethylphenyl)piperidin‐1‐yl]‐D‐glycero‐β‐D‐galacto‐nonulosonic acid]
ΔT m (relative to Neu5Ac) [1]: piperidine or piperazine‐linked halogenated aromatic residues showed the largest thermal stabilizations
